From US12595253B2, “Benzamides of pyrazolylamino-pyrimidinyl derivatives, and compositions and methods thereof” (LYNK PHARMACEUTICALS CO. LTD., priority 2019, dated 2026) come the findings set out here.

A short description of data set [1]: Liver microsomes study, Phase I stability (HLM). The data set is classed as in vitro ADME, human. To be noted: pH 7.4; human liver microsomes 0.5 mg/mL, 1 μM test article; read-out: HLM Clint. The method in brief:
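Rat or human liver microsomes were incubated with test article, and reactions started with an NADPH regenerating system. Samples at 0, 10, 30 and 90 minutes were quenched with cold acetonitrile and analyzed by LC/MS/MS. T½ and CLint came from the ln(% remaining) versus time slope, scaled by protein concentration.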

For another data set, the target named is T1, JAK2V617F (Homo sapiens, UniProt O60674, V617F).
T1 construct: purchased Carna Biosciences
The data set can be described thus: JAK2V617F microfluidic kinase assay (Caliper EZ Reader II, FAM labeled peptide substrate). It counts as biochemical. To be noted: JAK2V617F 2.5 nM, 1 mM ATP. In a few lines: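 Activity measured in 50 mM HEPES, 0.01% Brij35, 10 mM MgCl2, 2 mM DTT by microfluidic separation of phosphorylated FAM peptide. Enzyme conditions set for 10% substrate conversion.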

The target in a further data set is T2, CYP1A2 (Homo sapiens, UniProt P05177).
T2 construct: 0.2 mg/mL human liver microsomes was pre-incubated in 180 μL reaction mixture; from tissue; host or cells: pooled human liver microsomes
T2 sequence (P05177 1-516): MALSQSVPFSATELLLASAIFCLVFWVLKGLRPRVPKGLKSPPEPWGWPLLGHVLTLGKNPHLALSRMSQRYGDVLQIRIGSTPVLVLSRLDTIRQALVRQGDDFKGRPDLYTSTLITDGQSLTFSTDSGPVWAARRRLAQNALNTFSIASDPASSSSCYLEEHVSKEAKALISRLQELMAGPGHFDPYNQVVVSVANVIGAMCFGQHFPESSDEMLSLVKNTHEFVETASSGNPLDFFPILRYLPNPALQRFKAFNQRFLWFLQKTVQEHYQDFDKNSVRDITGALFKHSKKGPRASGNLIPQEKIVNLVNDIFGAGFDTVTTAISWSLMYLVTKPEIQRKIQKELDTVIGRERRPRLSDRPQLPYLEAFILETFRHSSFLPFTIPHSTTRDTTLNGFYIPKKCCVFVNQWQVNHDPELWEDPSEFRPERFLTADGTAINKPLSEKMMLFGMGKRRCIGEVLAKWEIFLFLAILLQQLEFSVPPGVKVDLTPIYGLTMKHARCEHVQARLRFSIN
As to the kind of experiment: CYPs inhibition in pooled human liver microsomes, probe substrate Phenacetin. It counts as in vitro ADME. As to the method: The inhibitory potential of test articles in pooled human liver microsomes was evaluated by the method using a cocktail of CYP substrates. […] For the negative control well, the test articles was replaced with 20 μL reaction buffer. After 10 min of pre-incubation at 37° C., 20 μL 10 mM NADPH cofactor was added to the pre-reaction mixtures. After another 10 min incubation, the reaction was stopped by adding 400 μL of ice cold acetonitrile solution containing tolbutamide and labetalol served as internal standards. The incubation mixtures were centrifuged at 4000×g for 20 min, and then the supernatants were analyzed by LC-MS/MS after dilution. SigmaPlot was applied to plot % control activity versus the test compound concentrations, and for non-linear regression analysis of the data. IC50 values of test articles were determined using 3-parameter logistic equation.
For orientation: Microsomes from liver hold many membrane-bound enzymes, among them those of drug oxidation.

Data set [2] in a line: Rat colon pharmacokinetic study (plasma, colon, colon + fecal content). The data set is classed as in vivo. Particulars: SD rats, 10 mg/kg oral gavage; for Colon + Feces AUC: colon homogenized with fecal content; for Colon AUC: colon washed of fecal content; for half-life / AUC / Cmax: Sprague-Dawley (SD), rat; for half-life: in vivo; for AUC / Cmax: plasma. As to the method:
The aim of this study was to obtain the pharmacokinetics of test articles in SD rats after oral administration. […] Rats were dosed with 10 mg/kg (1 mg/ml) via oral gavage. After dosing, blood and colon samples were collected at each time point (typically 0.5, 1, 3, 6, 24 hour). Blood was collected into appropriately labeled tubes containing K2EDTA as the anticoagulant. Plasma was obtained within one hour of blood collection by centrifugation at 8000g, 4-10° C. for 6 minutes, and then stored at −20° C. until analyzed by LC-MS/MS for quantification. Colon tissues were collected from exsanguinated rats at each time point. Collected colon tissue was divided into two parts. One part for the measurement of test articles in colon was washing three times by PBS to remove the fecal content before homogenization. The other part was homogenized with the fecal content for the measurement of test articles in colon and fecal content. Colon samples were homogenized in 1:5 (w/v) phosphate buffer (100 mM, pH 7.4). Homogenized samples were extracted with 3 fold volumes of acetonitrile and quantified against a standard curve with LC-MS/MS system.

T1 sequence (O60674 whole entry V617F): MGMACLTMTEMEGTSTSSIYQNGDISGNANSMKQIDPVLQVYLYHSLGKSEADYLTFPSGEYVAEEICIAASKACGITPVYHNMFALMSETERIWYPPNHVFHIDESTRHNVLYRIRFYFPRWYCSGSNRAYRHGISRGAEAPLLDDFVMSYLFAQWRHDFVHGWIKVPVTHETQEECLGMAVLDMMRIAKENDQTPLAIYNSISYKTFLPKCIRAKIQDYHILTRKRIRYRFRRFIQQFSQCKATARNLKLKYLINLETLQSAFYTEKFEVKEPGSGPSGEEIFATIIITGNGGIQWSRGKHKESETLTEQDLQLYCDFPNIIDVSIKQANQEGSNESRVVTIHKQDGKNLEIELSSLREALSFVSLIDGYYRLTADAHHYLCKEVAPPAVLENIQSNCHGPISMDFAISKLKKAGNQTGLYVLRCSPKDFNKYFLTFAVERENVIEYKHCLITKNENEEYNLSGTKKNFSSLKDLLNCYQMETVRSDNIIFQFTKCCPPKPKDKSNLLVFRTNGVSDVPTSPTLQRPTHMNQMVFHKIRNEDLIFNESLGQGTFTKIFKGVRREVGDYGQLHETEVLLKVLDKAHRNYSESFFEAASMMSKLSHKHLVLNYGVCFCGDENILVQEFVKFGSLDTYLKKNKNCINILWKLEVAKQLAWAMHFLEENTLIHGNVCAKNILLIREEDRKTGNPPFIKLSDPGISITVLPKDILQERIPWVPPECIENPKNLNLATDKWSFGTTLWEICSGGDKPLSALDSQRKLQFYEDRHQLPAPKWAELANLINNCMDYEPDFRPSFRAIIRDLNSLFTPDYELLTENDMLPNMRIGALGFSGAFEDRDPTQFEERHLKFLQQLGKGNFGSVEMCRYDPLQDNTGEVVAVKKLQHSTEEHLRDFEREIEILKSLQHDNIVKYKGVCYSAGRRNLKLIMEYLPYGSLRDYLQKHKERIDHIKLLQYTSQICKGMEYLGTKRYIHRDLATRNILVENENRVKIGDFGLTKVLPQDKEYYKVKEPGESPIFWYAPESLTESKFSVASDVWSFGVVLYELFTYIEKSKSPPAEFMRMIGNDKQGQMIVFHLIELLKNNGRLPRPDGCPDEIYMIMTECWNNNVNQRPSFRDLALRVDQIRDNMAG

Take `Cn1cc(Nc2ncc(Cl)c(-c3ccc(C(=O)NCC#N)cc3)n2)cn1` [Example 34, 4-(5-Chloro-2-((1-methyl-1H-pyrazol-4-yl)amino)pyrimidin-4-yl)-N-(cyanomethyl)benzamide]: the microsomal CLint at 1 μM in data set [1] was found to be 12.3 µL/min/mg.
Regarding `CC[C@@H](C#N)NC(=O)c1ccc(-c2nc(Nc3cnn(C4CC4)c3)ncc2Cl)cc1` [Example 61, (S)-4-(5-chloro-2-((1-cyclopropyl-1H-pyrazol-4-yl)amino)pyrimidin-4-yl)-N-(1-cyanopropyl)benzamide], the midpoint of inhibition at JAK2V617F, the IC50, lay at 34.8 nM.
The same measure, in the same setting: the same measure for `CCNC(=O)c1ccc(-c2nc(Nc3cnn(C)c3)ncc2C)cc1` [Example 222, N-ethyl-4-(5-methyl-2-((1-methyl-1H-pyrazol-4-yl)amino)pyrimidin-4-yl)benzamide]: greater than 5000 nM.
At CYP1A2, `CC[C@@H](C#N)NC(=O)c1ccc(-c2nc(Nc3cnn(C4CCN(C)CC4)c3)ncc2C)cc1` [Example 184, (S)—N-(1-Cyanopropyl)-4-(5-methyl-2-((1-(1-methylpiperidin-4-yl)-1H-pyrazol-4-yl)amino)pyrimidin-4-yl)benzamide] had an IC50 greater than 50 µM. Also, in data set [2], the “Colon + Feces AUC” value is 827,222 h*ng/g, the “Colon AUC” value was 3,961 h*ng/g, the half-life was 30 min and the AUC came out at 8.9 ng·h/mL. In addition, the Cmax in data set [2] worked out at 9.3 ng/mL. In addition, the microsomal CLint at 1 μM in data set [1] came out at 11.4 µL/min/mg.
`CC[C@@H](C#N)NC(=O)c1ccc(-c2nc(Nc3cnn(C4CCNCC4)c3)ncc2Cl)cc1` [Example 183, (S)-4-(5-chloro-2-((1-(piperidin-4-yl)-1H-pyrazol-4-yl)amino)pyrimidin-4-yl)-N-(1-cyanopropyl)benzamide]: the IC50 on CYP1A2 was greater than 50 µM. Also, the microsomal CLint at 1 μM in data set [1] worked out at 12 µL/min/mg.
On to `C[C@@H](C#N)NC(=O)c1ccc(-c2nc(Nc3cnn(C4CC4)c3)ncc2Cl)cc1` [Example 111, (S)-4-(5-Chloro-2-((1-cyclopropyl-1H-pyrazol-4-yl)amino)pyrimidin-4-yl)-N-(1-cyanoethyl)benzamide], for which, at JAK2V617F, the concentration for half-maximal inhibition (IC50) turned out to be 31.4 nM.
At CYP1A2, `Cc1cnc(Nc2cnn(C3CC(C)(C)OC(C)(C)C3)c2)nc1-c1ccc(C(=O)NCC#N)cc1` [Example 113, N-(cyanomethyl)-4-(5-methyl-2-((1-(2,2,6,6-tetramethyltetrahydro-2H-pyran-4-yl)-1H-pyrazol-4-yl)amino)pyrimidin-4-yl)benzamide] displayed a 50% inhibitory concentration (IC50) greater than 50 µM. For the same compound, the microsomal CLint at 1 μM in data set [1] came to 203 µL/min/mg.
`C[C@@H](C#N)NC(=O)c1ccc(-c2nc(Nc3cnn(C4CCNCC4)c3)ncc2Cl)cc1` [Example 165, (S)-4-(5-chloro-2-((1-(piperidin-4-yl)-1H-pyrazol-4-yl)amino)pyrimidin-4-yl)-N-(1-cyanoethyl)benzamide] showed an IC50 against CYP1A2 greater than 50 µM.
For `Cc1cnc(Nc2cnn(C3CCN(C(=O)CO)CC3)c2)nc1-c1ccc(C(=O)N[C@@H](C)C#N)cc1` [Example 119, (S)—N-(1-cyanoethyl)-4-(2-((1-(1-(2-hydroxyacetyl)piperidin-4-yl)-1H-pyrazol-4-yl)amino)-5-methylpyrimidin-4-yl)benzamide], on CYP1A2, the 50% inhibitory concentration (IC50) is greater than 50 µM. In addition, half-maximal inhibition at JAK2V617F (IC50) was put at 0.96 nM. For the same compound, in data set [2], the “Colon + Feces AUC” value is 1,629,181 h*ng/g, the “Colon AUC” value amounted to 6898 ng·h/g, the AUC is 23.7 ng·h/mL and the Cmax amounted to 16 ng/mL.
At CYP1A2, `C[C@@H](C#N)NC(=O)c1ccc(-c2nc(Nc3cnn(C4CCN(C)CC4)c3)ncc2Cl)cc1` [Example 43, (S)-4-(5-Chloro-2-((1-(1-methylpiperidin-4-yl)-1H-pyrazol-4-yl)amino)pyrimidin-4-yl)-N-(1-cyanoethyl)benzamide] came in with an IC50 greater than 50 µM. In addition, inhibition on JAK2V617F was half-maximal at 45.2 nM (IC50). For the same compound, in data set [2], the “Colon + Feces AUC” value was 559,570 h*ng/g, the “Colon AUC” value amounted to 3860 ng·h/g, the AUC was 0.4 ng·h/mL and the Cmax was 1.6 ng/mL. Besides, in data set [1], the microsomal CLint at 1 μM amounted to 15 µL/min/mg.
On CYP1A2, `Cc1cnc(Nc2cnn(CC#N)c2)nc1-c1ccc(C(=O)NCC#N)cc1` [Example 4, N-(Cyanomethyl)-4-(2-((1-(cyanomethyl)-1H-pyrazol-4-yl)amino)-5-methylpyrimidin-4-yl)benzamide] registered an IC50 of 45.8 µM. Moreover, the IC50 at JAK2V617F was found to be 109 nM. Also, in data set [2], the “Colon + Feces AUC” value is given as 545,501 h*ng/g, the “Colon AUC” value was 6,623 h*ng/g, the half-life is 96 min and the exposure (AUC) came out at 96 ng·h/mL. Also, the Cmax in data set [2] came to 68.8 ng/mL. Also, the microsomal CLint at 1 μM in data set [1] worked out at 1.22 µL/min/mg.
Consider `Cc1cnc(Nc2cnn(C)c2)nc1-c1ccc(C(=O)NC(C)C)cc1` [Example 223, N-isopropyl-4-(5-methyl-2-((1-methyl-1H-pyrazol-4-yl)amino)pyrimidin-4-yl)benzamide], for which the IC50 on JAK2V617F stood at 4540 nM.
In turn, `N#CCNC(=O)c1ccc(-c2nc(Nc3cnn(C4CC4)c3)ncc2Cl)cc1` [Example 95, 4-(5-Chloro-2-((1-cyclopropyl-1H-pyrazol-4-yl)amino)pyrimidin-4-yl)-N-(cyanomethyl)benzamide] had a 50% inhibitory concentration (IC50) against JAK2V617F of 25.3 nM. For the same compound, the microsomal CLint at 1 μM in data set [1] stood at 8.84 µL/min/mg.
As for `CNC(=O)c1ccc(-c2nc(Nc3cnn(C)c3)ncc2C)cc1` [Example 10, N-Methyl-4-(5-methyl-2-((1-methyl-1H-pyrazol-4-yl)amino)pyrimidin-4-yl)benzamide], the IC50 on JAK2V617F was greater than 5000 nM.
As to `C[C@@H](C#N)NC(=O)c1ccc(-c2nc(Nc3cnn(C)c3)ncc2Cl)cc1` [Example 125, (S)-4-(5-chloro-2-((1-methyl-1H-pyrazol-4-yl)amino)pyrimidin-4-yl)-N-(1-cyanoethyl)benzamide], in data set [1], the microsomal CLint at 1 μM came out at 21.9 µL/min/mg.

As usually defined, the IC50 is the concentration that inhibits the measured activity by half. Read a high IC50 as weaker potency. The term half-life denotes the time needed for the level to fall by half in the phase considered. The term AUC denotes the area under the concentration-time curve, a measure of exposure. What is called Cmax is the highest concentration seen after dosing.
